Experimental data reported in paper PMC8162404, “Proteomimetic surface fragments distinguish targets by function” (Chemical Science, 2020).
Where two headings read alike, the source gives them in different places.

How the values were obtained:
Assay in all cases: Pull-down assay with immobilized protein and LSM libraries
Gal-1 = target: T1, Gal-1 (Homo sapiens, UniProt P09382); format: binding; settings: 1:1 binding assumed, read-out: Surface mapping KD (apparent)
T1 construct: made in house; host or cells: E. coli BL21(DE3)
T1 sequence (P09382 whole entry): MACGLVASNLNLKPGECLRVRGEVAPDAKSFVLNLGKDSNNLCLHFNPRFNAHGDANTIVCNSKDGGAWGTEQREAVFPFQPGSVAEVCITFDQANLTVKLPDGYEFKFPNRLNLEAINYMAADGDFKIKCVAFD
Procedure, shortened: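 His-tagged protein immobilized on Co-NTA resin (64 µM) in 20 mM HEPES pH 7.4, 150 mM NaCl, equilibrated 30 min at room temperature with foldamer LSM sublibraries at equimolar total concentration. Unbound fractions quantified by HPLC-MS versus protein-free resin control; apparent KD assumes 1:1 binding.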

S100A4 = target: T2, S100A4 (Homo sapiens, UniProt P26447); format: binding; settings: 1:1 binding assumed, read-out: Surface mapping KD (apparent)
T2 construct: made in house; host or cells: Escherichia coli BL21(DE3)
T2 sequence (P26447 whole entry): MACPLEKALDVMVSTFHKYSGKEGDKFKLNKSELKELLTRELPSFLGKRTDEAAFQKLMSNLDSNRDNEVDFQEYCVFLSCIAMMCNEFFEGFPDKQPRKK
Procedure, shortened: (§1)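 Buffers were HEPES pH 7.4 with 150 mM NaCl, plus 1 mM TCEP and 1 mM CaCl2 (50 mM HEPES) for S100A4 and S100B, 1 mM TCEP for Gal-1, and no additive for RecQ-WH. Immobilized protein at 64 µM was equilibrated 30 min with the LSM sublibrary, and unbound probes were measured by LC-MS.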

CaM = target: T3, CaM (Bos taurus, UniProt P62157); format: binding, bovine
T3 construct: made in house; host or cells: E. coli BL21 (DE3)
Procedure, shortened: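 His-tagged protein immobilized on Co-NTA resin, equilibrated 30 min at room temperature with LSM sublibraries (64 members, […]), equimolar protein to total probe. CaM buffer: 20 mM HEPES pH 7.4, 150 mM NaCl, 5 mM CaCl2. Bound fractions from HPLC-MS loss of unbound probe versus protein-free resin control; Kd derived.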

S100B = target: T4, S100B (Homo sapiens, UniProt P04271); format: binding; settings: 1:1 binding assumed, read-out: Surface mapping KD (apparent)
T4 construct: made in house; host or cells: Escherichia coli BL21(DE3)
T4 sequence (P04271 1-92): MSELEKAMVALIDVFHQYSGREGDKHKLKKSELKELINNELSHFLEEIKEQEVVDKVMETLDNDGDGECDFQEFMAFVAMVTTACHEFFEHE
Procedure, shortened: as §1

[1] = H12 library, 1:2 stoichiometry assumed, read-out: Surface mapping KD (apparent)
[2] = H14 library, 1:2 stoichiometry assumed, read-out: Surface mapping KD (apparent)

Compound	Kd (Gal-1; H12 library)	Kd (S100A4; H12 library)	Kd (CaM; [1])	Kd (S100B; H12 library)	other results
CC[C@H](C)[C@@H](CC(=O)N[C@H]1CCC[C@@H]1C(=O)N[C@H]1CCC[C@@H]1C(N)=O)NC(=O)[C@H]1CCC[C@@H]1NC(=O)[C@H]1CCC[C@@H]1NC(=O)C[C@H](CC(=O)O)NC(=O)[C@H]1CCC[C@@H]1NC(=O)[C@H]1CCC[C@@H]1N [H12 DI]	249 µM	449 µM			
CC(C)C[C@@H](CC(=O)N[C@H]1CCC[C@@H]1C(=O)N[C@H]1CCC[C@@H]1C(N)=O)NC(=O)[C@H]1CCC[C@@H]1NC(=O)[C@H]1CCC[C@@H]1NC(=O)C[C@H](CC(=O)O)NC(=O)[C@H]1CCC[C@@H]1NC(=O)[C@H]1CCC[C@@H]1N [H12 DL]	249 µM	449 µM			
NC(=O)[C@H]1CCC[C@@H]1NC(=O)[C@H]1CCC[C@@H]1NC(=O)C[C@H](Cc1ccccc1)NC(=O)[C@H]1CCC[C@@H]1NC(=O)[C@H]1CCC[C@@H]1NC(=O)C[C@H](Cc1ccccc1)NC(=O)[C@H]1CCC[C@@H]1NC(=O)[C@H]1CCC[C@@H]1N [H12 FF]	130 µM	125 µM	21 µM	14 µM	
CC[C@H](C)[C@@H](CC(=O)N[C@H]1CCC[C@@H]1C(=O)N[C@H]1CCC[C@@H]1C(N)=O)NC(=O)[C@H]1CCC[C@@H]1NC(=O)[C@H]1CCC[C@@H]1NC(=O)C[C@H](Cc1ccccc1)NC(=O)[C@H]1CCC[C@@H]1NC(=O)[C@H]1CCC[C@@H]1N [H12 FI]	167 µM	126 µM	15 µM	13 µM	
CC(C)C[C@@H](CC(=O)N[C@H]1CCC[C@@H]1C(=O)N[C@H]1CCC[C@@H]1C(N)=O)NC(=O)[C@H]1CCC[C@@H]1NC(=O)[C@H]1CCC[C@@H]1NC(=O)C[C@H](Cc1ccccc1)NC(=O)[C@H]1CCC[C@@H]1NC(=O)[C@H]1CCC[C@@H]1N [H12 FL]	114 µM	83 µM	205 µM	14 µM	
CSCC[C@@H](CC(=O)N[C@H]1CCC[C@@H]1C(=O)N[C@H]1CCC[C@@H]1C(N)=O)NC(=O)[C@H]1CCC[C@@H]1NC(=O)[C@H]1CCC[C@@H]1NC(=O)C[C@H](Cc1ccccc1)NC(=O)[C@H]1CCC[C@@H]1NC(=O)[C@H]1CCC[C@@H]1N [H12 FM]		197 µM		39 µM	Kd (CaM): 42 µM
NC(=O)[C@H]1CCC[C@@H]1NC(=O)[C@H]1CCC[C@@H]1NC(=O)C[C@H](Cc1ccc(O)cc1)NC(=O)[C@H]1CCC[C@@H]1NC(=O)[C@H]1CCC[C@@H]1NC(=O)C[C@H](Cc1ccccc1)NC(=O)[C@H]1CCC[C@@H]1NC(=O)[C@H]1CCC[C@@H]1N [H12 FY]		192 µM		59 µM	
CSCC[C@@H](CC(=O)N[C@H]1CCC[C@@H]1C(=O)N[C@H]1CCC[C@@H]1C(=O)N[C@H](CC(=O)N[C@H]1CCC[C@@H]1C(=O)N[C@H]1CCC[C@@H]1C(N)=O)Cc1ccccc1)NC(=O)[C@H]1CCC[C@@H]1NC(=O)[C@H]1CCC[C@@H]1N [H12 MF]		303 µM	74 µM	32 µM	
CSCC[C@@H](CC(=O)N[C@H]1CCC[C@@H]1C(=O)N[C@H]1CCC[C@@H]1C(=O)N[C@H](CC(=O)N[C@H]1CCC[C@@H]1C(=O)N[C@H]1CCC[C@@H]1C(N)=O)CC(C)C)NC(=O)[C@H]1CCC[C@@H]1NC(=O)[C@H]1CCC[C@@H]1N [H12 ML]		245 µM	98 µM	81 µM	
CSCC[C@@H](CC(=O)N[C@H]1CCC[C@@H]1C(=O)N[C@H]1CCC[C@@H]1C(=O)N[C@H](CC(=O)N[C@H]1CCC[C@@H]1C(=O)N[C@H]1CCC[C@@H]1C(N)=O)Cc1c[nH]c2ccccc12)NC(=O)[C@H]1CCC[C@@H]1NC(=O)[C@H]1CCC[C@@H]1N [H12 MW]		170 µM	42 µM	26 µM	
N=C(N)NCCC[C@@H](CC(=O)N[C@H]1CCC[C@@H]1C(=O)N[C@H]1CCC[C@@H]1C(N)=O)NC(=O)[C@H]1CCC[C@@H]1NC(=O)[C@H]1CCC[C@@H]1NC(=O)C[C@H](CC(N)=O)NC(=O)[C@H]1CCC[C@@H]1NC(=O)[C@H]1CCC[C@@H]1N [H12 NR]		245 µM		106 µM	
NC(=O)C[C@@H](CC(=O)N[C@H]1CCC[C@@H]1C(=O)N[C@H]1CCC[C@@H]1C(=O)N[C@@H](CO)CC(=O)N[C@H]1CCC[C@@H]1C(=O)N[C@H]1CCC[C@@H]1C(N)=O)NC(=O)[C@H]1CCC[C@@H]1NC(=O)[C@H]1CCC[C@@H]1N [H12 NS]		230 µM	99 µM		
CC(C)[C@@H](CC(=O)N[C@H]1CCC[C@@H]1C(=O)N[C@H]1CCC[C@@H]1C(N)=O)NC(=O)[C@H]1CCC[C@@H]1NC(=O)[C@H]1CCC[C@@H]1NC(=O)C[C@H](CCCNC(=N)N)NC(=O)[C@H]1CCC[C@@H]1NC(=O)[C@H]1CCC[C@@H]1N [H12 RV]	226 µM	422 µM		133 µM	
CC(C)[C@@H](CC(=O)N[C@H]1CCC[C@@H]1C(=O)N[C@H]1CCC[C@@H]1C(=O)N[C@@H](CCC(N)=O)CC(=O)N[C@H]1CCC[C@@H]1C(=O)N[C@H]1CCC[C@@H]1C(N)=O)NC(=O)[C@H]1CCC[C@@H]1NC(=O)[C@H]1CCC[C@@H]1N [H12 VQ]	436 µM	497 µM			
CSCC[C@@H](CC(=O)N[C@H]1CCC[C@@H]1C(=O)N[C@H]1CCC[C@@H]1C(N)=O)NC(=O)[C@H]1CCC[C@@H]1NC(=O)[C@H]1CCC[C@@H]1NC(=O)C[C@H](Cc1c[nH]c2ccccc12)NC(=O)[C@H]1CCC[C@@H]1NC(=O)[C@H]1CCC[C@@H]1N [H12 WM]		98 µM	42 µM	20 µM	
CC(C)[C@@H](CC(=O)N[C@H]1CCC[C@@H]1C(=O)N[C@H]1CCC[C@@H]1C(N)=O)NC(=O)[C@H]1CCC[C@@H]1NC(=O)[C@H]1CCC[C@@H]1NC(=O)C[C@H](Cc1c[nH]c2ccccc12)NC(=O)[C@H]1CCC[C@@H]1NC(=O)[C@H]1CCC[C@@H]1N [H12 WV]		183 µM	83 µM	38 µM	
NC(=O)[C@H]1CCC[C@@H]1NC(=O)[C@H]1CCC[C@@H]1NC(=O)C[C@H](Cc1ccc(O)cc1)NC(=O)[C@H]1CCC[C@@H]1NC(=O)[C@H]1CCC[C@@H]1NC(=O)C[C@H](Cc1c[nH]c2ccccc12)NC(=O)[C@H]1CCC[C@@H]1NC(=O)[C@H]1CCC[C@@H]1N [H12 WY]		153 µM	30 µM	28 µM	
NC(=O)[C@H]1CCC[C@@H]1NC(=O)[C@H]1CCC[C@@H]1NC(=O)C[C@H](Cc1ccccc1)NC(=O)[C@H]1CCC[C@@H]1NC(=O)[C@H]1CCC[C@@H]1NC(=O)C[C@H](Cc1ccc(O)cc1)NC(=O)[C@H]1CCC[C@@H]1NC(=O)[C@H]1CCC[C@@H]1N [H12 YF]		239 µM	30 µM	36 µM	
CC[C@H](C)[C@@H](CC(=O)N[C@H]1CCC[C@@H]1C(=O)N[C@H]1CCC[C@@H]1C(N)=O)NC(=O)[C@H]1CCC[C@@H]1NC(=O)[C@H]1CCC[C@@H]1NC(=O)C[C@H](Cc1ccc(O)cc1)NC(=O)[C@H]1CCC[C@@H]1NC(=O)[C@H]1CCC[C@@H]1N [H12 YI]	319 µM	283 µM		64 µM	
CC(C)C[C@@H](CC(=O)N[C@H]1CCC[C@@H]1C(=O)N[C@H]1CCC[C@@H]1C(N)=O)NC(=O)[C@H]1CCC[C@@H]1NC(=O)[C@H]1CCC[C@@H]1NC(=O)C[C@H](Cc1ccc(O)cc1)NC(=O)[C@H]1CCC[C@@H]1NC(=O)[C@H]1CCC[C@@H]1N [H12 YL]	402 µM	180 µM		81 µM	
NC(=O)[C@H]1CCC[C@@H]1NC(=O)[C@H]1CCC[C@@H]1NC(=O)C[C@H](Cc1c[nH]c2ccccc12)NC(=O)[C@H]1CCC[C@@H]1NC(=O)[C@H]1CCC[C@@H]1NC(=O)C[C@H](Cc1ccc(O)cc1)NC(=O)[C@H]1CCC[C@@H]1NC(=O)[C@H]1CCC[C@@H]1N [H12 YW]		153 µM	30 µM	28 µM	
C[C@@H](CC(=O)N[C@H]1CCCC[C@@H]1C(N)=O)NC(=O)[C@H]1CCCC[C@@H]1NC(=O)[C@H]1CCCC[C@@H]1NC(=O)C[C@H](C)NC(=O)[C@H]1CCCC[C@@H]1N [H14 AA]					Kd (CaM; [2]): 402 µM; Kd (Gal-1; H14 library): 326 µM; Kd (S100A4; H14 library): 205 µM
NC(=O)C[C@@H](CC(=O)N[C@H]1CCCC[C@@H]1C(N)=O)NC(=O)[C@H]1CCCC[C@@H]1NC(=O)[C@H]1CCCC[C@@H]1NC(=O)C[C@H](Cc1ccccc1)NC(=O)[C@H]1CCCC[C@@H]1N [H14 FN]					Kd (CaM; [2]): 90 µM; Kd (S100A4; H14 library): 337 µM
CC[C@H](C)[C@@H](CC(=O)N[C@H]1CCCC[C@@H]1C(N)=O)NC(=O)[C@H]1CCCC[C@@H]1NC(=O)[C@H]1CCCC[C@@H]1NC(=O)C[C@H](CCCCN)NC(=O)[C@H]1CCCC[C@@H]1N [H14 KI]					Kd (CaM; [2]): 22 µM; Kd (S100A4; H14 library): 85 µM; Kd (S100B; H14 library): 80 µM
CC(C)C[C@@H](CC(=O)N[C@H]1CCCC[C@@H]1C(N)=O)NC(=O)[C@H]1CCCC[C@@H]1NC(=O)[C@H]1CCCC[C@@H]1NC(=O)C[C@H](CCCCN)NC(=O)[C@H]1CCCC[C@@H]1N [H14 KL]					Kd (CaM; [2]): 22 µM; Kd (S100A4; H14 library): 85 µM; Kd (S100B; H14 library): 80 µM
CC(C)C[C@@H](CC(=O)N[C@H]1CCCC[C@@H]1C(=O)N[C@H]1CCCC[C@@H]1C(=O)N[C@@H](CCC(=O)O)CC(=O)N[C@H]1CCCC[C@@H]1C(N)=O)NC(=O)[C@H]1CCCC[C@@H]1N [H14 LE]					Kd (Gal-1; H14 library): 463 µM; Kd (S100A4; H14 library): 427 µM
